Earlier results in PubChem BioAssay AID1259409 (Chemical Carcinogenesis Research Information System (CCRIS), 2018).

Test system: rodent chemically induced tumor inhibition, incidence and multiplicity
Assay: CCRIS tumor inhibitor studies
Conditions: Promoter: NONE USED

CCCCC1C(=O)N(c2ccccc2)N(c2ccccc2)C1=O
tumour outcome (control, treated, inhibition, significance) (Carcinogen: N-NITROSOBIS(2-OXOPROPYL)AMINE, 60599-38-4, Dose [Inhibitor]: 0, 0.25% IN DIET FOR 27 WK BEGINNING POST LAST CARCINOGEN DOSE (STUDY DURATION: 32 WK), Route [Inhibitor]: ORAL, Species: HAMSTER, Strain/Sex: SYRIAN/FEMALE, Target Tissue: Type of Lesion: PANCREAS: ADENOCARCINOMA, Dose [Carcinogen]: 10 MG/KG 1/WK FOR 5 WK): 20/28 (71%), 7/19 (37%), 48%, p<0.05

C=CCc1ccc(O)c(OC)c1
tumour outcome (control, treated, inhibition, significance) (Carcinogen: BENZO[A]PYRENE, 50-32-8, Dose [Inhibitor]: 10 MG IN 0.1 ML ACETONE 3/WK ADMINISTERED SIMULTANEOUSLY WITH CARCINOGEN FOR DU RATION OF STUDY (STUDY DURATION: 368 D), Route [Inhibitor]: DERMAL, Species: MOUSE, Strain/Sex: ICR/FEMALE, Target Tissue: Type of Lesion: SKIN: PAPILLOMA, Dose [Carcinogen]: 5 UG IN 0.1 ML ACETONE 3/WK FOR DURATION OF STUDY): 14/50 (28%), 4/50 (8%), 71%, not calculated | tumour outcome (control, treated, inhibition, significance) (Carcinogen: BENZO[A]PYRENE, 50-32-8, Dose [Inhibitor]: 10 MG IN 0.1 ML ACETONE 3/WK ADMINISTERED SIMULTANEOUSLY WITH CARCINOGEN FOR DU RATION OF STUDY (STUDY DURATION: 368 D), Route [Inhibitor]: DERMAL, Species: MOUSE, Strain/Sex: ICR/FEMALE, Target Tissue: Type of Lesion: SKIN: SQUAMOUS CARCINOMA, Dose [Carcinogen]: 5 UG IN 0.1 ML ACETONE 3/WK FOR DURATION OF STUDY): 10/50 (20%), 2/50 (4%), 80%, not calculated

O=C(O)CCSCCC(=O)O
tumour outcome (control, treated, inhibition, significance) (Carcinogen: 7,12-DIMETHYLBENZ[A]ANTHRACENE, 57-97-6, Dose [Inhibitor]: 1.0% IN POWDERED DIET BEGINNING 1 WK POST CARCINOGEN DOSE FOR 51 WK (STUDY DURATION: 52 WK), Route [Inhibitor]: ORAL, Species: RAT, Strain/Sex: SPRAGUE-DAWLEY/FEMALE, Target Tissue: Type of Lesion: EAR DUCT: BENIGN TUMOR, Dose [Carcinogen]: 2.5 MG/100 G BW IN 0.5 ML SESAME OIL ONCE): 7/19 (37%), 2/19 (11%), 72%, not calculated | tumour outcome (control, treated, inhibition, significance) (Carcinogen: 7,12-DIMETHYLBENZ[A]ANTHRACENE, 57-97-6, Dose [Inhibitor]: 1.0% IN POWDERED DIET BEGINNING 1 WK POST CARCINOGEN DOSE FOR 51 WK (STUDY DURATION: 52 WK), Route [Inhibitor]: ORAL, Species: RAT, Strain/Sex: SPRAGUE-DAWLEY/FEMALE, Target Tissue: Type of Lesion: MAMMARY GLAND: FIBROADENOMA, Dose [Carcinogen]: 2.5 MG/100 G BW IN 0.5 ML SESAME OIL ONCE): 15/19 (79%), 9/19 (47%), 40%, not calculated

COC(=O)[C@H](CCSC)NC(C)=O
tumour outcome (control, treated, inhibition, significance) (Carcinogen: 7,12-DIMETHYLBENZ[A]ANTHRACENE, 57-97-6, Dose [Inhibitor]: 0.06 MMOL/G DIET DAILY FOR 17 WK STARTING 1 WK PRIOR TO CARCINOGEN TREATMENT AND CONTINUING THROUGH THE END OF THE STUDY, Route [Inhibitor]: ORAL, Species: RAT, Strain/Sex: SPRAGUE-DAWLEY/FEMALE, Target Tissue: Type of Lesion: MAMMARY GLAND: TUMOR, Dose [Carcinogen]: 12 MG IN 1 ML OLIVE OIL ONCE): 59%, 75%, -27%, not calculated
